Data as given in ChEMBL document CHEMBL1143824, “National survey on the susceptibility of Bacteroides fragilis group: report and analysis of trends in the United States from 1997 to 2004” (2007).
Values after ≈ are worked out from the molar mass of the structure shown.

What was measured:
Assay type in all cases: functional
[1] = system: Bacteroides eggerthii; experiment: Antimicrobial activity against Bacteroides eggerthii isolates by agar dilution method
[2] = system: Bacteroides uniformis; experiment: Antimicrobial activity against Bacteroides uniformis isolates by agar dilution method
[3] = system: Bacteroides ovatus; experiment: Antimicrobial activity against Bacteroides ovatus assessed as percent resistant isolates
[4] = system: Bacteroides uniformis; experiment: Antimicrobial activity against Bacteroides uniformis assessed as percent resistant isolates
[5] = system: Parabacteroides distasonis; experiment: Antimicrobial activity against Bacteroides distasonis isolates by agar dilution method
[6] = system: Bacteroides fragilis; experiment: Antimicrobial activity against Bacteroides fragilis isolates by agar dilution method
[7] = system: Phocaeicola vulgatus; experiment: Antimicrobial activity against Bacteroides vulgatus isolates by agar dilution method
[8] = system: Bacteroides thetaiotaomicron; experiment: Antimicrobial activity against Bacteroides thetaiotaomicron assessed as percent resistant isolates
[9] = system: Bacteroides stercoris; experiment: Antimicrobial activity against Bacteroides stercoris assessed as percent resistant isolates
[10] = system: Bacteroides thetaiotaomicron; experiment: Antimicrobial activity against Bacteroides thetaiotaomicron isolates by agar dilution method
[11] = system: Bacteroides stercoris; experiment: Antimicrobial activity against Bacteroides stercoris isolates by agar dilution method
[12] = system: Bacteroides fragilis; experiment: Antimicrobial activity against Bacteroides fragilis assessed as percent resistant isolates
[13] = system: Bacteroides caccae; experiment: Antimicrobial activity against Bacteroides caccae isolates by agar dilution method
[14] = system: Phocaeicola vulgatus; experiment: Antimicrobial activity against Bacteroides vulgatus assessed as percent resistant isolates
[15] = system: Parabacteroides merdae; experiment: Antimicrobial activity against Bacteroides merdae isolates by agar dilution method
[16] = system: Bacteroides eggerthii; experiment: Antimicrobial activity against Bacteroides eggerthii assessed as percent resistant isolates
[17] = system: Bacteroides ovatus; experiment: Antimicrobial activity against Bacteroides ovatus isolates by agar dilution method
[18] = system: Parabacteroides merdae; experiment: Antimicrobial activity against Bacteroides merdae assessed as percent resistant isolates
[19] = system: Parabacteroides distasonis; experiment: Antimicrobial activity against Bacteroides distasonis assessed as percent resistant isolates
[20] = system: Bacteroides caccae; experiment: Antimicrobial activity against Bacteroides caccae assessed as percent resistant isolates

Structure (SMILES)	MIC [1]	MIC90 [1]	MIC [2]	MIC90 [2]	Activity [4]	MIC90 [5]	MIC [6]	MIC90 [6]	MIC [7]	MIC90 [7]	Activity [8]	Activity [9]	MIC [10]	MIC90 [10]	MIC [11]	MIC90 [11]	Activity [12]	MIC [13]	MIC90 [13]	Activity [14]	other results
C[C@@H](O)[C@H]1C(=O)N2C(C(=O)O)=C(SC3CNC(C(=O)Nc4cccc(C(=O)O)c4)C3)[C@H](C)[C@H]12 (single isomer, unassigned) [ERTAPENEM]	1.03 µg/mL (≈ 2.17 µM)	4 µg/mL (≈ 8.41 µM)	0.88 µg/mL (≈ 1.85 µM)	2 µg/mL (≈ 4.21 µM)	0.5%	4 µg/mL (≈ 8.41 µM)	0.79 µg/mL (≈ 1.66 µM)	2 µg/mL (≈ 4.21 µM)	0.82 µg/mL (≈ 1.72 µM)	2 µg/mL (≈ 4.21 µM)	0.4%	0.5%	1.69 µg/mL (≈ 3.55 µM)	4 µg/mL (≈ 8.41 µM)	1.03 µg/mL (≈ 2.17 µM)	4 µg/mL (≈ 8.41 µM)	1.4%	1.03 µg/mL (≈ 2.17 µM)	4 µg/mL (≈ 8.41 µM)	0.3%	Activity [3]: 0.6%; MIC [5]: 1.77 µg/mL (≈ 3.72 µM); MIC [15]: 1.03 µg/mL (≈ 2.17 µM); MIC90 [15]: 4 µg/mL (≈ 8.41 µM); Activity [16]: 0.5%; MIC [17]: 1.58 µg/mL (≈ 3.32 µM); MIC90 [17]: 4 µg/mL (≈ 8.41 µM); Activity [18]: 0.5%; Activity [19]: 1.5%; Activity [20]: 0.5%
CCC[C@@H]1C[C@@H](C(=O)NC([C@H](C)Cl)[C@H]2O[C@H](SC)[C@H](O)[C@@H](O)[C@H]2O)N(C)C1 (single isomer, unassigned) [CLINDAMYCIN]	3.63 µg/mL (≈ 8.54 µM)	256 µg/mL (≈ 602 µM)	4.22 µg/mL (≈ 9.93 µM)	256 µg/mL (≈ 602 µM)	28.9%	256 µg/mL (≈ 602 µM)	1.89 µg/mL (≈ 4.45 µM)	256 µg/mL (≈ 602 µM)	4.31 µg/mL (≈ 10.1 µM)	256 µg/mL (≈ 602 µM)	33.3%	28.2%	6.62 µg/mL (≈ 15.6 µM)	256 µg/mL (≈ 602 µM)	3.63 µg/mL (≈ 8.54 µM)	256 µg/mL (≈ 602 µM)	19.3%	3.63 µg/mL (≈ 8.54 µM)	256 µg/mL (≈ 602 µM)	35.3%	Activity [3]: 33.4%; MIC [5]: 4.51 µg/mL (≈ 10.6 µM); MIC [15]: 3.63 µg/mL (≈ 8.54 µM); MIC90 [15]: 256 µg/mL (≈ 602 µM); Activity [16]: 28.2%; MIC [17]: 5.89 µg/mL (≈ 13.9 µM); MIC90 [17]: 256 µg/mL (≈ 602 µM); Activity [18]: 28.2%; Activity [19]: 29.6%; Activity [20]: 28.2%
COC1(NC(=O)Cc2cccs2)C(=O)N2C(C(=O)O)=C(COC(N)=O)CS[C@@H]21 (single isomer, unassigned) [CEFOXITIN]	17.6 µg/mL (≈ 41.2 µM)	64 µg/mL (≈ 150 µM)	12.9 µg/mL (≈ 30.2 µM)	32 µg/mL (≈ 74.9 µM)	7.5%	128 µg/mL (≈ 299 µM)	15.4 µg/mL (≈ 36.1 µM)	32 µg/mL (≈ 74.9 µM)	10.5 µg/mL (≈ 24.6 µM)	32 µg/mL (≈ 74.9 µM)	16.8%	10.9%	29.5 µg/mL (≈ 69 µM)	64 µg/mL (≈ 150 µM)	17.6 µg/mL (≈ 41.2 µM)	64 µg/mL (≈ 150 µM)	5.2%	17.6 µg/mL (≈ 41.2 µM)	64 µg/mL (≈ 150 µM)	0.3%	Activity [3]: 17.2%; MIC [5]: 34.2 µg/mL (≈ 80 µM); MIC [15]: 17.6 µg/mL (≈ 41.2 µM); MIC90 [15]: 64 µg/mL (≈ 150 µM); Activity [16]: 10.9%; MIC [17]: 27.2 µg/mL (≈ 63.5 µM); MIC90 [17]: 64 µg/mL (≈ 150 µM); Activity [18]: 10.9%; Activity [19]: 29.9%; Activity [20]: 10.9%
C[C@@H](O)[C@H]1C(=O)N2C(C(=O)O)=C(SCCNC=N)C[C@H]12 [IMIPENEM ANHYDROUS]	0.35 µg/mL (≈ 1.17 µM)	1 µg/mL (≈ 3.34 µM)	0.43 µg/mL (≈ 1.44 µM)	1 µg/mL (≈ 3.34 µM)	0.5%	2 µg/mL (≈ 6.68 µM)	0.31 µg/mL (≈ 1.04 µM)	1 µg/mL (≈ 3.34 µM)	0.5 µg/mL (≈ 1.67 µM)	1 µg/mL (≈ 3.34 µM)	0.2%	0%	0.45 µg/mL (≈ 1.5 µM)	1 µg/mL (≈ 3.34 µM)	0.35 µg/mL (≈ 1.17 µM)	1 µg/mL (≈ 3.34 µM)	0.5%	0.35 µg/mL (≈ 1.17 µM)	1 µg/mL (≈ 3.34 µM)	0.3%	Activity [3]: 0.2%; MIC [5]: 0.95 µg/mL (≈ 3.17 µM); MIC [15]: 0.35 µg/mL (≈ 1.17 µM); MIC90 [15]: 1 µg/mL (≈ 3.34 µM); Activity [16]: 0%; MIC [17]: 0.39 µg/mL (≈ 1.3 µM); MIC90 [17]: 1 µg/mL (≈ 3.34 µM); Activity [18]: 0%; Activity [19]: 0.4%; Activity [20]: 0%
C[C@@H](O)[C@H]1C(=O)N2C(C(=O)O)=C(S[C@@H]3CN[C@H](C(=O)N(C)C)C3)[C@H](C)[C@H]12 [MEROPENEM]	0.4 µg/mL (≈ 1.04 µM)	1 µg/mL (≈ 2.61 µM)	0.41 µg/mL (≈ 1.07 µM)	1 µg/mL (≈ 2.61 µM)	0.5%	2 µg/mL (≈ 5.22 µM)	0.38 µg/mL (≈ 0.991 µM)	1 µg/mL (≈ 2.61 µM)	0.47 µg/mL (≈ 1.23 µM)	1 µg/mL (≈ 2.61 µM)	0.1%	0.5%	0.47 µg/mL (≈ 1.23 µM)	1 µg/mL (≈ 2.61 µM)	0.4 µg/mL (≈ 1.04 µM)	1 µg/mL (≈ 2.61 µM)	1%	0.4 µg/mL (≈ 1.04 µM)	1 µg/mL (≈ 2.61 µM)	0%	MIC [15]: 0.4 µg/mL (≈ 1.04 µM); MIC90 [15]: 1 µg/mL (≈ 2.61 µM); Activity [16]: 0.5%; Activity [18]: 0.5%; Activity [19]: 1.1%; Activity [20]: 0.5%
CN(C)c1cc(NC(=O)CNC(C)(C)C)c(O)c2c1C[C@H]1C[C@H]3[C@H](N(C)C)C(O)=C(C(N)=O)C(=O)[C@@]3(O)C(O)=C1C2=O [TIGECYCLINE]	1.51 µg/mL (≈ 2.58 µM)	8 µg/mL (≈ 13.7 µM)	0.77 µg/mL (≈ 1.31 µM)	4 µg/mL (≈ 6.83 µM)	3.4%	8 µg/mL (≈ 13.7 µM)	1.59 µg/mL (≈ 2.71 µM)	8 µg/mL (≈ 13.7 µM)	1.05 µg/mL (≈ 1.79 µM)	4 µg/mL (≈ 6.83 µM)	3.6%	7.2%	1.57 µg/mL (≈ 2.68 µM)	8 µg/mL (≈ 13.7 µM)	1.51 µg/mL (≈ 2.58 µM)	8 µg/mL (≈ 13.7 µM)	5.1%	1.51 µg/mL (≈ 2.58 µM)	8 µg/mL (≈ 13.7 µM)	1.6%	Activity [3]: 3.3%; MIC [5]: 2.09 µg/mL (≈ 3.57 µM); MIC [15]: 1.51 µg/mL (≈ 2.58 µM); MIC90 [15]: 8 µg/mL (≈ 13.7 µM); Activity [16]: 7.2%; MIC [17]: 1.52 µg/mL (≈ 2.6 µM); MIC90 [17]: 8 µg/mL (≈ 13.7 µM); Activity [18]: 7.2%; Activity [19]: 2.1%; Activity [20]: 7.2%
COc1c(N2C[C@@H]3CCCN[C@@H]3C2)c(F)cc2c(=O)c(C(=O)O)cn(C3CC3)c12 [MOXIFLOXACIN]	3.85 µg/mL (≈ 9.59 µM)	32 µg/mL (≈ 79.7 µM)	5.57 µg/mL (≈ 13.9 µM)	32 µg/mL (≈ 79.7 µM)	38.6%	16 µg/mL (≈ 39.9 µM)	1.83 µg/mL (≈ 4.56 µM)	8 µg/mL (≈ 19.9 µM)	7.92 µg/mL (≈ 19.7 µM)	64 µg/mL (≈ 159 µM)	26.3%	36.4%	3.71 µg/mL (≈ 9.24 µM)	32 µg/mL (≈ 79.7 µM)	3.85 µg/mL (≈ 9.59 µM)	32 µg/mL (≈ 79.7 µM)	27.3%	3.85 µg/mL (≈ 9.59 µM)	32 µg/mL (≈ 79.7 µM)	54.7%	Activity [3]: 38.3%; MIC [5]: 2.32 µg/mL (≈ 5.78 µM); MIC [15]: 3.85 µg/mL (≈ 9.59 µM); MIC90 [15]: 32 µg/mL (≈ 79.7 µM); Activity [16]: 36.4%; MIC [17]: 5.49 µg/mL (≈ 13.7 µM); MIC90 [17]: 32 µg/mL (≈ 79.7 µM); Activity [18]: 36.4%; Activity [19]: 29.2%; Activity [20]: 36.4%
